Data on 4 compounds can be found in article PMC11747885, “Potent inhibitors of the human RNA ligase Rlig1 highlights its role in RNA integrity maintenance under oxidative cellular stress” (Chemical Science, 2025).

In data set [1] the target is T1, Rlig1-AMP (Homo sapiens, UniProt Q8N999).
T1 construct: made in house; host or cells: E. coli BL21 (DE3), pET15b-Rlig1
The data set is described as follows: Radioactive RNA ligation assay (hit validation, 10 µM test and IC50 determination). Format: biochemical. Particulars: for inhibition of Rlig1-AMP ligation (urea-PAGE): 10 μM compound, 500 nM Rlig1-AMP, 20 min 37 °C; for HillSlope (best-fit value) / Span (best-fit value) / IC50 / LogIC50 (best-fit value): four-parameter fit; for IC50: n = 3, read-out: IC50 (best-fit value); for inhibition at 30 µM: log Compound [µM] 1.47712; for LogIC50 (best-fit value): log of µM; for Bottom (best-fit value) / Top (best-fit value): log(inhibitor) vs. response, variable slope (four parameters).

Data set [2] is described as follows: Cell viability assay of HEK293 cells treated with inhibitors and menadione. Conditions: human, HEK293 cells, w/o Menadione; for viability at 7.5 µM: 7.5 µM compound; for viability at 15 µM: 15 µM compound; for viability at 30 µM: 30 µM compound; for viability at 60 µM: 60 µM compound. It counts as cell-based, human.
The subject of data set [3] is HEK293 cells. Described as above. Format: cell-based, human. Particulars: for Mean Diff, (Predicted (LS) mean diff,) w/o menadione - w menadione: 2 way ANOVA, Šídák's multiple comparisons test, normalised viability.
Data set [4] in a line: in vitro. Conditions: human.
Data set [5] concerns HEK293 cells. In words: Cell viability assay of HEK293 cells treated with inhibitors (CellTiter-Glo). Conditions: for cytotoxicity (in words) / EC50: HEK293, 24 h; for cytotoxicity (in words): up to 30 μM; for IC50 (Figure 3D: EC50 values for plot; log(inhibitor) vs. response -- Variable slope (four parameters)) / LogIC50 (log(inhibitor) vs. response -- Variable slope (four parameters)): HEK293 cell viability, fit per plate (3 plates, 4 technical replicates each); for IC50 (Figure 3D: EC50 values for plot; log(inhibitor) vs. response -- Variable slope (four parameters)): highest tested concentration 30 µM; for LogIC50 (log(inhibitor) vs. response -- Variable slope (four parameters)): log of [µM]; for EC50: Homo sapiens.

Where [6] appears, read: replicates I-III, read-out: percentage inhibition (dose response curve for IC50).
Where [7] appears, read: 20240508 plate 012, DMSO Ko no Mendione = 100.
[8] abbreviates: 20240508 plate 013, DMSO Ko no Mendione = 100.
Setting [9] is: 20240515 plate 014, DMSO Ko no Mendione = 100.
The mark [10] stands for this setting: 20240515 plate 015, DMSO Ko no Mendione = 100.

Several values for one entry are separate records, joined by “and”; a condition that tells them apart may be missing. Equal entries are not always repeated. Entries after “also recorded” stand apart in the source; their conditions may differ. Marks after values point to notes of the source that are not given here.

T1 sequence (Q8N999 whole entry): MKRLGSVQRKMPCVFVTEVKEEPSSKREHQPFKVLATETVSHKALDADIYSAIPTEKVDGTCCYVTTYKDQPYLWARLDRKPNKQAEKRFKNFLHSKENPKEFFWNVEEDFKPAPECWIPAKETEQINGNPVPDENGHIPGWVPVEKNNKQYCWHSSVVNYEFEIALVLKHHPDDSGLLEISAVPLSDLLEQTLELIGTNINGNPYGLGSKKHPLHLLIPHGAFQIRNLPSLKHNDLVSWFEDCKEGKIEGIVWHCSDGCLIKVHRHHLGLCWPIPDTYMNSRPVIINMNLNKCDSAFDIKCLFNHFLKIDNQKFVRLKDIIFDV

Take `CN(C)Cc1ccc(-c2cnn3c(-c4cccc(NC(=O)c5cccc(C(F)(F)F)c5)c4)ccnc23)cc1` [Compound 17, reference compound]: in data set [1] (10 µM compound, 37 °C, 20 min), the “inhibition in radioactive ligation assay (hit validation)” value is on record as “above 70%”.

For the compound `Nc1cc(Nc2ccc(NC(=O)c3ccc(Nc4ccnc5ccccc45)cc3)cc2)ccn1` [Compound 36], the “inhibition of Rlig1-AMP ligation (urea-PAGE)” value (“inhibition … (urea-PAGE)” for short) in data set [1] is reported as “Ligation was inhibited; also recorded: fully inhibited”. For the same compound, the “HillSlope (best-fit value)” value in data set [1] was found to be 3.369. Further, in data set [1], the “Span (best-fit value)” value is 96.63. Besides, the IC50 in data set [1] was 3.86 µM. In addition, in data set [1] (setting [6]), the inhibition at 30 µM worked out at 100%. In addition, in data set [1] (log Compound [µM] -0.0280287, replicates I-III, read-out: percentage inhibition (dose response curve for IC50)), the inhibition at 0.9375 µM turned out to be 5.58%. Also, the inhibition at 0.46875 µM in data set [1] (log Compound [µM] -0.329059, replicates I-III, read-out: percentage inhibition (dose response curve for IC50)) turned out to be 2.58%. The “LogIC50 (best-fit value)” value in data set [1] stood at 0.5866. For the same compound, the “Bottom (best-fit value)” value in data set [1] is on record as 4.368. In data set [1], the “Top (best-fit value)” value stood at 101. Further, the viability at 7.5 µM came to 91% in data set [2] (setting [7]), 101% in data set [2] (setting [8]), 96% in data set [2] (setting [9]) and 89% in data set [2] (setting [10]). The viability at 15 µM in data set [2] (setting [7]) turned out to be 98.9%; in data set [2] (setting [8]) it was 99.3%; in data set [2] (setting [9]) it was 94.8%; in data set [2] (setting [10]), 94.9%. In addition, the viability at 30 µM was 85.2% in data set [2] (setting [7]), 98.7% in data set [2] (setting [8]), 89.7% in data set [2] (setting [9]) and 81.9% in data set [2] (setting [10]). Also, the viability at 60 µM in data set [2] (setting [7]) turned out to be 82.1%; in data set [2] (setting [8]), 89.4%; in data set [2] (setting [9]), 88.4%; in data set [2] (setting [10]), 79.5%. In addition, the “Mean Diff, (Predicted (LS) mean diff,) w/o menadione - w menadione” value is on record as 8.308 in data set [3] (7.5 µM compound), 17.8 in data set [3] (15 µM compound), 11.65 in data set [3] (30 µM compound) and 4.361 in data set [3] (60 µM compound). Further, the “Cell viability raw signal, technical replicates” value (“Cell viability raw signal” for short) in data set [3] (7.5 µM compound, w Menadione (40µM), 20240508 plate 012) is 27030 and 23198 and 28223 and 26549; in data set [3] (7.5 µM compound, w Menadione (40µM), 20240508 plate 013) it was 27603 and 23558 and 27792 and 26913; in data set [3] (7.5 µM compound, w Menadione (40µM), 20240515 plate 014), 28096 and 25755 and 28850 and 30838; in data set [3] (7.5 µM compound, w Menadione (40µM), 20240515 plate 015), 27895 and 33778 and 30188 and 31212; in data set [3] (7.5 µM compound, w/o Menadione, 20240508 plate 012), 385210 and 396370 and 371980 and 372320; in data set [3] (7.5 µM compound, w/o Menadione, 20240508 plate 013), 405510 and 393590 and 402690 and 387370. In addition, the “Cell viability raw signal” value in data set [3] (7.5 µM compound, w/o Menadione, 20240515 plate 014) was 380800 and 387250 and 402000 and 397370; in data set [3] (7.5 µM compound, w/o Menadione, 20240515 plate 015), 356280 and 367960 and 366010 and 366080; in data set [3] (15 µM compound, w Menadione (40µM), 20240508 plate 012), 22111 and 21413 and 21368 and 22937; in data set [3] (15 µM compound, w Menadione (40µM), 20240508 plate 013) it was 69935* and 23670 and 27045 and 22274; in data set [3] (15 µM compound, w Menadione (40µM), 20240515 plate 014), 28312 and 27245 and 29168 and 29878; in data set [3] (15 µM compound, w Menadione (40µM), 20240515 plate 015) it was 27690 and 32043 and 28425 and 26586. The “Cell viability raw signal” value was 24245 and 20350 and 24935 and 20723 in data set [3] (30 µM compound, w Menadione (40µM), 20240508 plate 012); 21997 and 20914 and 24666 and 21857 in data set [3] (30 µM compound, w Menadione (40µM), 20240508 plate 013); 26699 and 30187 and 27245 and 26622 in data set [3] (30 µM compound, w Menadione (40µM), 20240515 plate 014); 24014 and 26245 and 23994 and 40225 in data set [3] (30 µM compound, w Menadione (40µM), 20240515 plate 015); 348650 and 347840 and 366110 and 365510 in data set [3] (30 µM compound, w/o Menadione, 20240508 plate 012); 158210* and 163010* and 19082* and 18545* in data set [3] (60 µM compound, w Menadione (40µM), 20240508 plate 012). The “Cell viability raw signal” value in data set [3] (60 µM compound, w Menadione (40µM), 20240508 plate 013) is 166210* and 174600* and 20028* and 18681*; in data set [3] (60 µM compound, w Menadione (40µM), 20240515 plate 014), 33336 and 33031 and 28059 and 24828; in data set [3] (60 µM compound, w Menadione (40µM), 20240515 plate 015) it was 185100* and 184480* and 111650* and 66878*; in data set [3] (60 µM compound, w/o Menadione, 20240508 plate 012), 344220 and 331510 and 355900 and 344190; in data set [3] (60 µM compound, w/o Menadione, 20240508 plate 013), 348460 and 354210 and 355750 and 353860; in data set [3] (60 µM compound, w/o Menadione, 20240515 plate 014), 336500 and 373330 and 357790 and 375230. For the same compound, the “Cell viability raw signal” value in data set [3] (60 µM compound, w/o Menadione, 20240515 plate 015) was 321900 and 321160 and 330420 and 326560. For the same compound, the viability at 24 h, 0.234375 µM in data set [4] was determined as 106%. The viability at 24 h, 0.46875 µM in data set [4] amounted to 99.9%. Further, in data set [4], the viability at 24 h, 0.9375 µM was 104%. Also, the viability at 24 h, 1.875 µM in data set [4] turned out to be 99.2%. Further, the viability at 24 h, 3.75 µM in data set [4] is 93.6%. The viability at 24 h, 7.5 µM in data set [4] is 93.9%. For the same compound, in data set [4], the viability at 24 h, 15 µM came to 86.8%. Moreover, the viability at 24 h, 30 µM in data set [4] amounted to 90.4%. Moreover, the “cytotoxicity (in words)” value in data set [5] was “no detectable cytotoxicity”. The “IC50 (Figure 3D: EC50 values for plot; log(inhibitor) vs. response -- Variable slope (four parameters))” value in data set [5] is 2607.3 µM and 1652.85 µM and 299.495 µM. In addition, the “LogIC50 (log(inhibitor) vs. response -- Variable slope (four parameters))” value in data set [5] is 3.416 and 3.218 and 2.476. Further, in data set [5], the EC50 is over 30 µM.

Take `Cc1cc(Nc2ccc(NC(=O)c3ccc(Nc4cccc5ccccc45)cc3)cc2)nc(N)n1` [Compound 44]: the “inhibition … (urea-PAGE)” value in data set [1] is “inactive”.

Regarding `Cc1cc(Nc2ccc(NC(=O)c3ccc(Nc4ccnc5[nH]ccc45)cc3)cc2)nc(N)n1` [Compound 46], in data set [1], the “inhibition … (urea-PAGE)” value is on record as “Ligation was inhibited; also recorded: inhibited ligase activity”, the “HillSlope (best-fit value)” value is listed as 6.864, the “Span (best-fit value)” value amounted to 90.69 and the IC50 was 7.1 µM. Also, in data set [1], the “LogIC50 (best-fit value)” value was 0.8514, the “Bottom (best-fit value)” value is 7.468 and the “Top (best-fit value)” value was 98.16. In addition, the inhibition at 30 µM in data set [1] (setting [6]) came to 100%. Further, in data set [4], the viability at 24 h, 0.234375 µM was 104%; the viability at 24 h, 0.46875 µM amounted to 98.9%; the viability at 24 h, 0.9375 µM worked out at 97.1%; the viability at 24 h, 1.875 µM worked out at 96.8%. Moreover, in data set [4], the viability at 24 h, 3.75 µM came out at 94.8%; the viability at 24 h, 7.5 µM was 64.8%; the viability at 24 h, 15 µM was 23.1%; the viability at 24 h, 30 µM turned out to be 7.96%. Moreover, in data set [5], the “cytotoxicity (in words)” value is “comparatively high cytotoxicity”; the “IC50 (Figure 3D: EC50 values for plot; log(inhibitor) vs. response -- Variable slope (four parameters))” value was 8.158 µM and 9.993 µM and 11.5211 µM; the “LogIC50 (log(inhibitor) vs. response -- Variable slope (four parameters))” value was 0.9116 and 0.9997 and 1.0615; the EC50 stood at 9.42 µM.
